The supplement of paper PMC10331698
± gives the standard deviation of the averaged measurements.

Assays:
Test in all cases: level (log10 ratio to DMSO vehicle control); higher = higher biomarker level / cell amount than vehicle control
Conditions in all cases: in DMSO
[1] = compound: O=C(O)CCC(F)(F)C(F)(F)C(F)(F)F [3:3 Fluorotelomer carboxylic acid]
Description: (§1)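 BioMAP Diversity Plus panel of 12 human primary cell co-culture systems (3C, 4H, LPS, SAg, BT, BF4T, BE3C, CASM3C, HDF3CGF, KF3CT, MyoF, Mphg). Compounds were added 1 h before stimulation and left for 24 h (MyoF 48 h; BT 72 h for soluble read-outs or 6 d for IgG). Biomarkers were read by ELISA, cytotoxicity by SRB, PBMC viability and proliferation by Alamar Blue. Each well value was divided by the mean of 8 DMSO control wells on the same plate and log10 transformed; duplicate blinded samples were tested at 4 concentrations.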

Hexafluoroglutaric acid = compound: O=C(O)C(F)(F)C(F)(F)C(F)(F)C(=O)O [Hexafluoroglutaric acid]
Description: as §1

[2] = compound: OCC(F)(F)C(F)(F)C(F)(F)C(F)(F)C(F)(F)C(F)F [1H,1H,7H-Dodecafluoro-1-heptanol]
Description: as §1

[3] = compound: O=S(=O)(O)C(F)(F)C(F)(F)C(F)(F)C(F)(F)C(F)(F)C(F)(F)C(F)(F)C(F)(F)F [Perfluorooctanesulfonic acid]
Description: as §1

[4] = compound: O=C(O)C(F)(F)C(F)(F)C(F)(F)C(F)(F)C(F)(F)C(F)(F)C(F)(F)C(F)(F)C(F)(F)C(F)(F)C(F)(F)C(F)(F)F [Perfluorotridecanoic acid]
Description: as §1

[5] = compound: O=C(O)C(F)(F)C(F)(F)C(F)(F)C(F)(F)C(F)(F)C(F)(F)C(F)(F)C(F)(F)Cl [9-Chloro-perfluorononanoic acid]
Description: as §1

Test System	level (log10) ([1]; 6700 nM)	level (log10) ([1]; 20000 nM)	level (log10) ([1]; 60000 nM)	level (log10) (Hexafluoroglutaric acid; 6700 nM)	level (log10) (Hexafluoroglutaric acid; 20000 nM)	level (log10) (Hexafluoroglutaric acid; 60000 nM)	level (log10) ([2]; 6700 nM)	level (log10) ([2]; 20000 nM)	level (log10) ([2]; 60000 nM)	level (log10) ([3]; 6700 nM)	level (log10) ([3]; 20000 nM)	level (log10) ([3]; 60000 nM)	level (log10) ([4]; 1500 nM)	level (log10) ([4]; 4400 nM)	level (log10) ([4]; 13000 nM)	level (log10) ([4]; 40000 nM)	level (log10) ([5]; 6700 nM)	level (log10) ([5]; 20000 nM)
HDF3CGF:CXCL9/MIG	-0.0115 ± 0.018	-0.005 ± 0.0057	0.0295 ± 0.025	-0.013 ± 0.014	-0.025 ± 0.011	-0.005 ± 0.013	0.0015 ± 0.013	-0.022 ± 0.038	0.011 ± 0.011	-0.011 ± 0.013	-0.0085 ± 0.029	-0.0595 ± 0.0064	-0.04 ± 0.03	-0.136 ± 0.12	-0.119 ± 0.043	-0.138 ± 0.073	-0.047 ± 0.02	-0.142 ± 0.04
HDF3CGF:CXCL10/IP-10	-0.0005 ± 0.013	0.003 ± 0.0042	-0.011 ± 0.011	0.0035 ± 0.021	-0.008 ± 0.0071	-0.011 ± 0.037	-0.0015 ± 0.015	-0.0055 ± 0.0021	-0.011 ± 0.018	-0.0405 ± 0.036	-0.113 ± 0.039	-0.259 ± 0.054	-0.0955 ± 0.063	-0.234 ± 0.2	-0.236 ± 0.098	-0.235 ± 0.13	-0.06 ± 0.027	-0.175 ± 0.0021
HDF3CGF:CXCL11/I-TAC	0.0025 ± 0.0092	-0.0065 ± 0.0078	0.012 ± 0.035	0.014 ± 0.0014	-0.011 ± 0.072	-0.0115 ± 0.061	0.011 ± 0.0028	0 ± 0.018	-0.0015 ± 0.011	-0.0165 ± 0.016	-0.0185 ± 0.00071	-0.087 ± 0.017	-0.072 ± 0.014	-0.074 ± 0.055	-0.0805 ± 0.077	-0.18 ± 0.034	-0.105 ± 0.029	-0.217 ± 0.069
HDF3CGF:Collagen I	-0.029 ± 0.0042	-0.006 ± 0.035	0.0325 ± 0.07	-0.03 ± 0.014	-0.0385 ± 0.0078	0.0105 ± 0.071	-0.0095 ± 0.011	-0.019 ± 0.027	0.0025 ± 0.08	0.0175 ± 0.033	0.0045 ± 0.026	0.0065 ± 0.042	0.0245 ± 0.1	-0.017 ± 0.0071	-0.0245 ± 0.044	0.0105 ± 0.013	-0.0595 ± 0.005	-0.151 ± 0.0042
HDF3CGF:Collagen III	-0.012 ± 0.017	-0.007 ± 0.025	0.0245 ± 0.054	-0.0065 ± 0.015	-0.0275 ± 0.00071	-0.0125 ± 0.00071	-0.002 ± 0.018	-0.0065 ± 0.0078	0.0145 ± 0.015	-0.024 ± 0.031	-0.0155 ± 0.015	-0.0585 ± 0.013	-0.057 ± 0.083	-0.27 ± 0.037	-0.261 ± 0.034	-0.224 ± 0.078	-0.0835 ± 0.046	-0.235 ± 0.061
HDF3CGF:EGFR	-0.023 ± 0.018	-0.012 ± 0.024	-0.003 ± 0.045	-0.021 ± 0.061	-0.0285 ± 0.056	-0.021 ± 0.072	-0.004 ± 0.025	-0.015 ± 0.03	0.0075 ± 0.011	-0.0205 ± 0.0064	-0.0495 ± 0.043	-0.04 ± 0.018	0.0025 ± 0.077	-0.052 ± 0.025	-0.0595 ± 0.03	-0.0175 ± 0.046	-0.135 ± 0.099	-0.2 ± 0.054
HDF3CGF:M-CSF	0.002 ± 0.0099	-0.004 ± 0.0042	0.001 ± 0.013	-0.0015 ± 0.013	-0.006 ± 0.033	-0.0285 ± 0.029	-0.0025 ± 0.018	-0.0055 ± 0.00071	-0.0045 ± 0.0035	0.0225 ± 0.018	0.018 ± 0.013	-0.075 ± 0.0042	0.016	0.0145 ± 0.049	-0.029 ± 0.078	-0.0295 ± 0.13	-0.058 ± 0.041	-0.089 ± 0.025
HDF3CGF:MMP-1	0.0045 ± 0.037	0.009 ± 0.017	0.0045 ± 0.015	0.0195 ± 0.0092	0.002 ± 0.02	-0.0045 ± 0.021	0.0115 ± 0.015	0.0105 ± 0.0021	0.012 ± 0.02	-0.0145 ± 0.0064	-0.016 ± 0.0014	0.0085 ± 0.015	-0.0005 ± 0.035	-0.061 ± 0.042	-0.063 ± 0.044	-0.068 ± 0.069	-0.0875 ± 0.005	-0.118 ± 0.011
HDF3CGF:PAI-I	-0.006 ± 0.031	-0.0035 ± 0.023	0.0085 ± 0.005	-0.0115 ± 0.016	-0.007 ± 0.014	0.0075 ± 0.021	-0.008 ± 0.0085	-0.004 ± 0.02	0.006 ± 0.047	0.006	0.0125 ± 0.011	-0.0015 ± 0.025	0.063	0.0515 ± 0.023	0.0505 ± 0.0064	-0.022 ± 0.027	0.0685 ± 0.033	0.0245 ± 0.015
HDF3CGF:Proliferation 72hr	-0.0095 ± 0.015	0.0385 ± 0.0092	0.021 ± 0.027	-0.011 ± 0.059	-0.013 ± 0.028	-0.008 ± 0.05	0.0045 ± 0.066	0 ± 0.072	0.003 ± 0.044	0.141 ± 0.05	0.15 ± 0.048	-0.544 ± 0.18	0.0615 ± 0.07	-0.603 ± 0.43	-0.288 ± 0.069	-0.233 ± 0.091	0.101 ± 0.022	-0.081 ± 0.054
HDF3CGF:SRB	0.029 ± 0.061	0.0105 ± 0.0078	0.011 ± 0.05	-0.03 ± 0.083	-0.0095 ± 0.097	0.0245 ± 0.12	-0.0345 ± 0.033	-0.007 ± 0.05	-0.0055 ± 0.057	0.008 ± 0.037	-0.009 ± 0.027	-0.0365 ± 0.035	-0.0195 ± 0.035	-0.007 ± 0.021	0.063 ± 0.054	0.067 ± 0.075	0.081 ± 0.016	0.065 ± 0.033
HDF3CGF:TIMP-1	0.0025 ± 0.019	0.004	0.0015 ± 0.0035	-0.0385 ± 0.026	-0.02 ± 0.072	-0.045 ± 0.073	-0.015 ± 0.027	-0.0055 ± 0.033	0.011 ± 0.044	-0.0015 ± 0.021	0.0165 ± 0.026	0.0895 ± 0.061	0.027 ± 0.028	-0.0075 ± 0.044	-0.023 ± 0.069	-0.04 ± 0.051	-0.028 ± 0.027	-0.0105 ± 0.056
HDF3CGF:TIMP-2	-0.0075 ± 0.023	-0.0015 ± 0.0035	-0.0195 ± 0.0064	-0.041 ± 0.0014	0.01 ± 0.0028	-0.0345 ± 0.0021	-0.0025 ± 0.0092	-0.0035 ± 0.0021	0.0025 ± 0.022	-0.028 ± 0.0085	-0.0695 ± 0.043	-0.149 ± 0.018	0.0455 ± 0.043	0.0415 ± 0.084	0.102 ± 0.019	0.0095 ± 0.013	-0.0645 ± 0.04	-0.146 ± 0.029
KF3CT:CCL2/MCP-1	-0.005 ± 0.025	-0.0135 ± 0.016	0.0225 ± 0.046	-0.0255 ± 0.04	-0.0325 ± 0.067	-0.0245 ± 0.0021	-0.0055 ± 0.021	-0.0155 ± 0.015	0.004 ± 0.028	-0.044 ± 0.017	-0.0205 ± 0.0078	0.0005 ± 0.00071	0.003 ± 0.076	-0.007 ± 0.02	-0.021 ± 0.031	0.018 ± 0.0042	0.004 ± 0.023	0.036 ± 0.035
KF3CT:CD54/ICAM-1	-0.0055 ± 0.0092	-0.008 ± 0.0014	0.001 ± 0.028	-0.0045 ± 0.00071	-0.014 ± 0.0057	-0.0015 ± 0.044	-0.002 ± 0.016	-0.0115 ± 0.0064	0.003 ± 0.017	-0.0085 ± 0.0035	0.003 ± 0.02	0.0115 ± 0.011	-0.03 ± 0.013	-0.019	-0.0285 ± 0.026	0.015 ± 0.017	-0.0175 ± 0.00071	-0.039 ± 0.0014
KF3CT:CXCL8/IL-8	0.0005 ± 0.022	-0.0035 ± 0.0092	-0.0005 ± 0.0064	-0.0115 ± 0.025	-0.006 ± 0.0057	-0.0135 ± 0.0021	0.017 ± 0.0028	0.01 ± 0.025	0.0165 ± 0.016	-0.005 ± 0.0085	-0.0135 ± 0.035	-0.012 ± 0.035	-0.0035 ± 0.04	-0.009 ± 0.037	-0.006 ± 0.033	-0.0315 ± 0.06	0.0015 ± 0.021	-0.0025 ± 0.0035
